Structures are written as SMILES. Activity calls are given as the source filed them.

As usually defined, the IC50 is the concentration that inhibits the measured activity by half. For orientation: AC50 means the midpoint of the concentration-response curve, whichever way the signal moves.

Sequence of Cytochrome P450 2C19 (P33261 whole entry): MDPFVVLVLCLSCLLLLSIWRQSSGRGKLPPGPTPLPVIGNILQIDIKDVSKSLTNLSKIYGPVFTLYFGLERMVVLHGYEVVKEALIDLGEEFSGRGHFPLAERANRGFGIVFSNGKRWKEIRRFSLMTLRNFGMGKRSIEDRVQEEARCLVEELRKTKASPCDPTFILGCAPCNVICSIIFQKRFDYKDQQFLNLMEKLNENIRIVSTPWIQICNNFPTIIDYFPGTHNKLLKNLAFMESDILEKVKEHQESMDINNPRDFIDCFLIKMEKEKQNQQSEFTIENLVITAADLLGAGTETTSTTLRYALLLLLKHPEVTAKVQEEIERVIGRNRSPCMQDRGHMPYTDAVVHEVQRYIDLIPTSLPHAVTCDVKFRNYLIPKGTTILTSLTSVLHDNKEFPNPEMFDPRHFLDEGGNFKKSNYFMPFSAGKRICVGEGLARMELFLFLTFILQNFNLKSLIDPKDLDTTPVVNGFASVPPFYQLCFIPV

The target in one test is T1, Rac GTPase-activating protein 1 (Homo sapiens, UniProt Q9H0H5).
T1 sequence (Q9H0H5 whole entry): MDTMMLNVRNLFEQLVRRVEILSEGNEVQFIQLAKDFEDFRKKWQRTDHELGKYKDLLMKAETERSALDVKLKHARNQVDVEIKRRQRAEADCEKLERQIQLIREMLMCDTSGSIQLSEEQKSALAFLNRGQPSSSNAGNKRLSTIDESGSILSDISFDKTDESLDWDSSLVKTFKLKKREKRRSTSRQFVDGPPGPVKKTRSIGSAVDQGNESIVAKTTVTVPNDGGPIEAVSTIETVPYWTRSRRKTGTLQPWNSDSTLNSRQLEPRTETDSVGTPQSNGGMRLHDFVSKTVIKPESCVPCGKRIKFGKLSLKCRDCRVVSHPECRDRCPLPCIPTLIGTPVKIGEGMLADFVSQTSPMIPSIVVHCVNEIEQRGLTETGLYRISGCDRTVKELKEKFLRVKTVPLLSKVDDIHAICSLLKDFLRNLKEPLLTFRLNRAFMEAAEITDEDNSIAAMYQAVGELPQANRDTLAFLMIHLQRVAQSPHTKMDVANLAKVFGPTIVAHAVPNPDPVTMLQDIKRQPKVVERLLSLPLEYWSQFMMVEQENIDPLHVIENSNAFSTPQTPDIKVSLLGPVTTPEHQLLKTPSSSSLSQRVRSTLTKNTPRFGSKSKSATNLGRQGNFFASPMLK
Nature of the test: MgcRacGAP GTPase-activating activity inhibitors, confirmation, biochemical, ADP Hunter fluorescence, primary and confirmatory (AID 624330). It is filed as functional.
Details: not given
As to `CCOC(=O)C1CCN(C2=NC(=O)/C(=C/c3ccc(O)cc3)S2)CC1`, the IC50 was 21.2 µM (active).
On to `COc1cc(/C=N/Nc2ccc(C(F)(F)F)cn2)ccc1O`, for which the IC50 was 36.3 µM (active).
Same read-out and setting: the value for `COCCNC(=O)Cn1cc(/C=N/NC(=O)c2ccc(Oc3ccc(O)cc3)cc2)c2ccccc21` was 53.3 µM (active); that for `COc1cc(/C=C/C(=O)OCC(=O)NCc2ccc(F)cc2)ccc1O` was 36.3 µM (active).
Regarding `COc1cc(/C=C/c2nc(O)c3ccccc3n2)ccc1O`, the half-maximal inhibitory concentration (IC50) is 41.4 µM (active).
In the case of `COc1ccc(NC2CCCN(C(=O)COc3ccc(C(C)=O)cc3)C2)cc1` (stereo not given), the IC50 is 84 µM (active).
For `C=CCn1c(N/N=C/c2ccc(O)cc2)nc2ccccc2c1=O`, the IC50 was 46.8 µM (active).
Turning to `COc1ccc(CN(C)CCc2ccccn2)cc1OC`, the IC50 was 74.6 µM (active).
Take `O=C(Cc1coc2cc(O)ccc12)NNC(=O)c1cccs1`: the IC50 was 32.7 µM (active).

A further test deals with T2, Corticotropin-releasing factor receptor 2/Corticotropin-releasing factor-binding protein (Homo sapiens, UniProt P24387+Q13324).
T2 sequence (Q13324 whole entry): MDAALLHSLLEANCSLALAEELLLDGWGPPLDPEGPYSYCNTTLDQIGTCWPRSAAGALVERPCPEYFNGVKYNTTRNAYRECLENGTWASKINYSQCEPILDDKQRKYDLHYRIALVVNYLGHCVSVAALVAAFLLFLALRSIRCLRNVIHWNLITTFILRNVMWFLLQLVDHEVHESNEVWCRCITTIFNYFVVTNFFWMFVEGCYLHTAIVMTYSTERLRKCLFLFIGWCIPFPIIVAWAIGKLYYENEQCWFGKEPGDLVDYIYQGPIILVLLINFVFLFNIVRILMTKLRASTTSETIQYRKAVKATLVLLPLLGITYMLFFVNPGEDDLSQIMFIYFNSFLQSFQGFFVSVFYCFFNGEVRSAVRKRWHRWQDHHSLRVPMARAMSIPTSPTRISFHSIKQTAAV
T2 sequence (P24387 whole entry): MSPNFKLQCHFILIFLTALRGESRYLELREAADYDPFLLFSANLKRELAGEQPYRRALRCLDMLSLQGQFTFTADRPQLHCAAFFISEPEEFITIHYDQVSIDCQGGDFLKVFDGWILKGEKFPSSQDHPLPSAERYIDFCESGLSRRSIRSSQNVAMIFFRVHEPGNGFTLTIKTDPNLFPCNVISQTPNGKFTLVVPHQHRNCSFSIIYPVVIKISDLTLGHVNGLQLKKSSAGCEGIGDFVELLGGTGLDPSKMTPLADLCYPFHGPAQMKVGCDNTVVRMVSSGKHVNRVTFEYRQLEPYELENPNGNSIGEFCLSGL
Nature of the test: activators of CRF receptor 2 with binding protein – uHTS hits, confirmation (AID 602473). The conditions noted are these: read-out: EC50_Mean. The test is classed as functional.
Regarding `Cc1ccc2c(c1)N(C(=O)CCC(=O)N1CCN(c3ccccn3)CC1)CCO2`, the EC50 was > 53 µM (inactive).
For `Cc1ccc(S(=O)(=O)NCC(=O)N(CC(=O)NCc2ccco2)Cc2ccccc2)cc1`, the EC50 is 10.1 µM (active).
As to `CC(Oc1ccc(Br)cc1)C(=O)Nc1ccc(S(=O)(=O)NC2=NCCCCC2)cc1` (stereo not given), the EC50 is 4.66 µM (active).
Consider `CC1(C)CC2=Nc3ccccc3NCC2=C(O)C1`, for which the EC50 was > 53 µM (inactive).
With `Cc1nn(CC(=O)N(C)C2(C#N)CCCCC2)c(C)c1[N+](=O)[O-]`, the EC50 was > 53 µM (inactive).
With `CCOc1ccc(C2=CC(c3ccccc3)n3ncnc3N2)cc1` (stereo not given), the EC50 was > 53 µM (inactive).

The target of another test is T3, Cytochrome P450 1A2 (Homo sapiens, UniProt P05177).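 Further: PubChem cytochrome P450 panel assay, CYP1A2 panel member.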
T3 sequence (P05177 whole entry): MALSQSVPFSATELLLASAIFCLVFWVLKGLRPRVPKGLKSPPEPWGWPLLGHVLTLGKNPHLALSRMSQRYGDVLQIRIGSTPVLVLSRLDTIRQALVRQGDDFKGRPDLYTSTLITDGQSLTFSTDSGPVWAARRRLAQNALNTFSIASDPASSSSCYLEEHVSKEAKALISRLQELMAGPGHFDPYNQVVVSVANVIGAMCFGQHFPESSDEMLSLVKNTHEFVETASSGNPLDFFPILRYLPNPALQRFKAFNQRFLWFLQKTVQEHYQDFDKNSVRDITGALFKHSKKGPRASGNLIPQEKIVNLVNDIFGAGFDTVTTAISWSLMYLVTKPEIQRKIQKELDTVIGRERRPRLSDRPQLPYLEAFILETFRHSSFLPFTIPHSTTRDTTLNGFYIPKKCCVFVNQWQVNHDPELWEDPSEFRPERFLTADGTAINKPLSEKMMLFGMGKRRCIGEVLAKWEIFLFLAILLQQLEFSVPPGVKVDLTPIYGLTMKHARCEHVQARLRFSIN
Details: not given
Consider `CCOC(=O)c1cnn(-c2cc(Oc3ccccc3)ncn2)c1N`, for which the AC50 was 14.1 µM (inconclusive).
In the case of `CCN1CC=C2C(C#N)=C(N)C(C#N)(C#N)[C@H](c3ccoc3)[C@H]2C1`, the AC50 is 39.8 µM (inconclusive).
Take `C[C@@H](Cc1ccccc1)NCCC(c1ccccc1)c1ccccc1`: the AC50 was 15.8 µM (inconclusive).
For `COc1ccc(-n2c(=O)c(CCc3ccccc3)nc3cnc(N4CCOCC4)nc32)cc1`, the AC50 is 15.8 µM (inconclusive).
For the compound `CC1CCC2(CC1)N=C(N)Nc1nc3ccccc3n12` (stereo not given), the AC50 was 12.6 µM (inconclusive).
The same measure, in the same setting: the value for `CS(=O)(=O)c1ccc(/C=N\NC(N)=S)cc1` was 5.01 µM (inconclusive).

Another test deals with T4, Heat shock factor protein 1 (Mus musculus, UniProt P38532).
T4 sequence (P38532 whole entry): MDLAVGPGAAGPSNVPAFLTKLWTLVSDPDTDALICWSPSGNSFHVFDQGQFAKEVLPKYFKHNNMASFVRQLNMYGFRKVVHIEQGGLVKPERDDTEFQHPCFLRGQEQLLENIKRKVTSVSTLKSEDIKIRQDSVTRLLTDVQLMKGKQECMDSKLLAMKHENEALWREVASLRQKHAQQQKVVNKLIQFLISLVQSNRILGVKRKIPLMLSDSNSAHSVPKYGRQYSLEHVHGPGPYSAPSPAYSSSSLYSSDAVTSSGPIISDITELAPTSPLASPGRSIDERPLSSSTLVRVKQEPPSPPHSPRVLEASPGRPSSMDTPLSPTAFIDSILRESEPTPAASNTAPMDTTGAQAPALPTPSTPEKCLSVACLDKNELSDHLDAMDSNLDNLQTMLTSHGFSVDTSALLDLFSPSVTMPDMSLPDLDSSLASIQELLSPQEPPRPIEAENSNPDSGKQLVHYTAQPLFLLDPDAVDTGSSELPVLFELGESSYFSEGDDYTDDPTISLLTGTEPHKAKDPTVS
Nature of the test: inhibition of MG132-induced HSE-luciferase signal, confirmation, cell-based, NIH3T3, luminescence, dose retest (AID 2382).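 Further: NIH3T3 fibroblasts with HSF1-driven luciferase reporter stressed by proteasome inhibitor MG132; luminescence from HSF1-driven luciferase expression after 8 hours of MG132 stress.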 The test is classed as functional.
Details: not given
Consider `COc1cc(C2C(C#N)=C(N)N(N(C)C)C3=C2C(=O)CC(C)(C)C3)ccc1O` (stereo not given), for which the EC50 was > 195 µM (not active).
For `Cc1ccc(C)c(NC(=O)CCc2nnc3ccc(NCc4ccco4)nn23)c1`, the EC50 is > 195 µM (not active).
With `CCOc1ccc(/C=N/NC(=O)C(O)c2ccccc2)c(O)c1` (stereo not given), the EC50 is > 195 µM (not active).
In the case of `Cc1ccc(-c2nn[nH]n2)o1`, the EC50 is recorded as > 195 µM (not active).
Same read-out and setting: the value for `COc1ccc2oc(=O)c(N3C(=O)c4ccccc4C3=O)cc2c1` was > 195 µM (not active); that for `Cc1cccc(C)c1NC(=O)c1cccnc1` was > 195 µM (not active).
In the case of `O=C(CSc1nnc(CNC(=O)c2cccs2)o1)NCc1ccc(F)cc1`, the EC50 is > 195 µM (not active).
For `Cc1oc(C(=O)O)cc1COc1ccc2c3c(c(=O)oc2c1C)CCC3`, the EC50 is > 195 µM (not active).
For `CCOc1ccccc1N1CCN(CC(=O)NC(C)c2ccccc2)CC1` (stereo not given), the EC50 is recorded as > 195 µM (not active).
Regarding `O=C(NC(=O)c1cccc(F)c1)OC[C@@H]1CCCN2CCCC[C@H]12`, the EC50 was > 195 µM (not active).
On the same count and under the same terms, the value for `Cc1cc(C)c2cc(CN(CCN(C)C)C(=O)Nc3ccccc3Cl)c(O)nc2c1` was > 195 µM (not active); that for `COc1ccc2c(COC(=O)CCS(=O)(=O)c3ccc(C)cc3)cc(=O)oc2c1` was > 195 µM (not active).
Turning to `CCOC(=O)c1c(NC(=O)CN2CCCCC2)sc2c1CCC(C=O)=C2Cl`, the EC50 was > 195 µM (not active).
For `Cc1cc(C)nc(NNC2=CC(=[N+]3CCCCC3)CC(C)(C)C2)n1`, the EC50 is > 195 µM (not active).
As to `CC1CCC2(CC1)N=C(N)Nc1nc3ccccc3n12` (stereo not given), the EC50 was > 195 µM (not active).
In the case of `Cc1nn(C(C)C(=O)NCCCc2ccccc2)c(=O)c2cc3occc3n12` (stereo not given), the EC50 is > 195 µM (not active).
Same read-out and setting: the value for `COc1ccc(/N=C2/SC(C(=O)N3CCN(c4ccccc4)CC3)CC(=O)N2C)cc1` (stereo not given) was > 195 µM (not active).
With `Cc1onc(-c2ccccc2)c1C(=O)Nc1sc2c(c1C(N)=O)CCC2`, the EC50 was > 195 µM (not active).
`COc1ccc(NC(=O)CCc2nnc3ccc(N4CCC(C)CC4)nn23)cc1OC`: the EC50 is > 195 µM (not active).

Another test has as its target Cytochrome P450 2C19 (Homo sapiens, UniProt P33261). The test is described as follows: Cytochrome panel assay with activity outcomes. Panel member name: p450-cyp2c19 Compounds with AC50 equal or less than 10 uM are considered active. It is filed as functional. The conditions noted are these: read-out: AC50.
Turning to `CCOC(=O)c1cnn(-c2cc(Oc3ccccc3)ncn2)c1N`, the AC50 was 31.6 µM (inconclusive).
Regarding `CCN1CC=C2C(C#N)=C(N)C(C#N)(C#N)[C@H](c3ccoc3)[C@H]2C1`, the AC50 was 39.8 µM (inconclusive).
With `C[C@@H](Cc1ccccc1)NCCC(c1ccccc1)c1ccccc1`, the AC50 was 7.94 µM (inconclusive).
Consider `COc1ccc(-n2c(=O)c(CCc3ccccc3)nc3cnc(N4CCOCC4)nc32)cc1`, for which the AC50 was 25.1 µM (inconclusive).
For `CC1CCC2(CC1)N=C(N)Nc1nc3ccccc3n12` (stereo not given), the AC50 is 17.8 µM (inconclusive).

These data come from ChEMBL document CHEMBL1201862, “PubChem BioAssay data set” (2004).
